This is an account of results in US20230227411A1, “Benzimidazole Derivatives” (Hoffmann-La Roche Inc., priority 2020, published 2023).

For the test, the target named is T1, human cGAS (residues 161-522) (Homo sapiens, UniProt Q8N884).
T1 construct: Recombinantly expressed purified human cGAS (residues 161-522) was used at 25 nM; made in house
T1 sequence (Q8N884 161-522): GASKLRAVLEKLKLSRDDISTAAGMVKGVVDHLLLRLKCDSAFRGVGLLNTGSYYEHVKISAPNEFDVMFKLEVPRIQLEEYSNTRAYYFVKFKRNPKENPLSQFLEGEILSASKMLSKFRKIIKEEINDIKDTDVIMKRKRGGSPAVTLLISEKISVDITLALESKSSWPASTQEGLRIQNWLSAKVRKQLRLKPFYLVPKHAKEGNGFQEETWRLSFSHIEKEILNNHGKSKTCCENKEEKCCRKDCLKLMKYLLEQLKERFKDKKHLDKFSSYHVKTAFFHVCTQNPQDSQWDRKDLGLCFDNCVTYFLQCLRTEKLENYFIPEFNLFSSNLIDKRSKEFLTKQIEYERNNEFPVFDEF
The test is described as follows: Malachite Green assay to measure cGAS activity. The format is biochemical. To be noted: coupled enzymatic assay, phosphate detection by Malachite Green; 25 nM cGAS, 80 μM ATP, 80 μM GTP, 100 nM ISD, 4 hour at RT. As for the experimental part: Malachite Green Assay to Measure cGAS Activity
Compounds were tested for cGAS inhibition in a coupled enzymatic assay based on Phosphate detection by Malachite Green. Final assay conditions were 20 mM TRIS pH 7.5 (Applichem), 5 mM MgCl2 (Sigma) and 0.01% BSA (Sigma) supplemented with 80 μM ATP (Sigma), 80 μM GTP (Sigma) and 100 nM Interferon Stimulating DNA (ISD) (Microsynth). Recombinantly expressed purified human cGAS (residues 161-522) was used at 25 nM.
All compounds were prepared as 10 mM stock solutions in DMSO and a 16 pt dilution series in DMSO with a dilution factor of 2.5 was prepared. 1 μL of DMSO dilution series was transferred to 32.3 μL reaction buffer, mixed by pipetting up/down, spun for 1 minute at 3000 rpm and was visually inspected for precipitation. 5 μL of 3-fold enzyme stock solution were transferred to an empty 384-well Black/Clear Flat Bottom Polystyrene NBS (Corning) rows 3-24. Rows 1-2 were filled with assay buffer. Plates were spun 10 seconds at 1000 rpm (164×g). 5 μL of compound intermediate dilution was added and mixed by pipetting up/down to rows 3-24. Rows 1-2 were filled with 3.1% DMSO assay buffer. Plates were spun 10 seconds at 1000 rpm (164×g). 5 μL 3-fold Nucleotide/DNA mix was added to all wells to start the reaction. Plates were spun 10 seconds at 1000 rpm (164×g) and incubated for 4 hour at room temperature (RT) in the dark. 5 μL 4 U/mL PPase (Sigma) were added to all wells. Plates spun 10 seconds at 1000 rpm (164×g). 10 μL BioMol green Solution (Enzo Life Sciences) was added to all wells. Plates spun 10 seconds at 1000 rpm (164×g) and incubated 30 minutes at RT in the dark. Absorbance data was collected 620 nm on an EnVision Multilable Reader (Perkin Elmer) and the following measurement settings were used: excitation filter photometric was 620 nm; excitation from the top; measurement height was 1 mm; number of flashes was 30; number of flashes integrated was 1.
All plates are checked for abnormalities and outliers in the Blank Control (no protein, row 1) and the Neutral Control (no compound, row 2) are excluded using the 3*SD rule. Data was normalized to 0 and 100% by Blank and Neutral Control and each curve was fitted and judged using the 4 parameter logistic equation to determine the IC50 for cGAS inhibition.
Table 1 provides IC50 values (μM) for cGAS inhibition obtained for particular examples of the present invention as measured by the above-described assay.
One may read the IC50 as the concentration that gives 50% inhibition. `Cc1ccc(-c2cc(C(=O)O)c3c(c2)ncn3-c2ccccc2)c(Cl)c1` [Example 1, 5-(2-Chloro-4-methylphenyl)-1-phenyl-1H-benzo[d]imidazole-7-carboxylic acid] gave an IC50 of 1120 nM. That is a single-digit micromolar value.
In the case of `CC(=O)NCCCn1cnc2cc(-c3ccc(C)cc3Cl)cc(C(=O)O)c21` [Example 2, 1-(3-Acetamidopropyl)-5-(2-chloro-4-methylphenyl)-1H-benzo[d]imidazole-7-carboxylic acid], it took 2340 nM to reach half-maximal inhibition (IC50).
The compound `Cc1ccc(-c2cc(C(=O)O)c3c(c2)ncn3CCCNS(C)(=O)=O)c(Cl)c1` [Example 3, 5-(2-Chloro-4-methylphenyl)-1-(3-(methylsulfonamido)propyl)-1H-benzo[d]imidazole-7-carboxylic acid] gave an IC50 of 1340 nM.
Take `Cc1ccc(-c2cc(C(=O)O)c3c(c2)ncn3Cc2cccc(Cl)c2)c(Cl)c1` [Example 4, 5-(2-Chloro-4-methylphenyl)-1-(3-chlorobenzyl)-1H-benzo[d]imidazole-7-carboxylic acid]: it took 2590 nM to reach half-maximal inhibition (IC50).
Then `Cc1ccc(-c2cc(C(=O)O)c3c(c2)ncn3Cc2ccncc2)c(Cl)c1` [Example 5, 5-(2-Chloro-4-methylphenyl)-1-(pyridin-4-ylmethyl)-1H-benzo[d]imidazole-7-carboxylic acid], with 870 nM; and `Cc1ccc(-c2cc(C(=O)O)c3c(c2)ncn3Cc2cccnc2)c(Cl)c1` [Example 6, 5-(2-Chloro-4-methylphenyl)-1-(pyridin-3-ylmethyl)-1H-benzo[d]imidazole-7-carboxylic acid], with 2070 nM; and `Cc1ccc(-c2cc(C(=O)O)c3c(c2)ncn3Cc2ccccn2)c(Cl)c1` [Example 7, 6-(2-Chloro-4-methylphenyl)-3-(pyridin-2-ylmethyl)benzimidazole-4-carboxylic acid], with 1760 nM.
Then `Cc1ccc(-c2cc(C(=O)O)c3c(c2)ncn3CCN(C)C)c(Cl)c1` [Example 8, 5-(2-Chloro-4-methylphenyl)-1-(2-(dimethylamino)ethyl)-1H-benzo[d]imidazole-7-carboxylic acid], with 2020 nM; and `COCCn1cnc2cc(-c3ccc(C)cc3Cl)cc(C(=O)O)c21` [Example 9, 5-(2-Chloro-4-methylphenyl)-1-(2-methoxyethyl)-1H-benzo[d]imidazole-7-carboxylic acid], with 3040 nM; and `Cc1ccc(-c2cc(C(=O)O)c3c(c2)ncn3C2CC2)c(Cl)c1` [Example 10, 5-(2-Chloro-4-methylphenyl)-1-cyclopropyl-1H-benzo[d]imidazole-7-carboxylic acid], with 4790 nM.
In turn, `CCn1cnc2cc(-c3cc(F)c(C)cc3Cl)cc(C(=O)O)c21` [Example 11, 5-(2-Chloro-5-fluoro-4-methylphenyl)-1-ethyl-1H-benzo[d]imidazole-7-carboxylic acid] showed an IC50 of 1930 nM.
Then `CCn1cnc2cc(-c3ccc(C)cc3Cl)cc(C(=O)O)c21` [Example 12, 5-(2-Chloro-4-methylphenyl)-1-ethyl-1H-benzo[d]imidazole-7-carboxylic acid], with 2810 nM; and `Cc1ccc(-c2cc(C(=O)O)c3c(c2)ncn3CC(F)(F)F)c(Cl)c1` [Example 13, 5-(2-Chloro-4-methylphenyl)-1-(2,2,2-trifluoroethyl)-1H-benzo[d]imidazole-7-carboxylic acid], with 3290 nM; and `Cc1ccc(-c2cc(C(=O)O)c3c(c2)ncn3CCc2ccccc2)c(Cl)c1` [Example 14, 5-(2-Chloro-4-methylphenyl)-1-phenethyl-1H-benzo[d]imidazole-7-carboxylic acid], with 1860 nM.
Under `Cc1ccc(-c2cc(C(=O)O)c3c(c2)ncn3Cc2ccccc2)c(Cl)c1` [Example 15, 1-Benzyl-5-(2-chloro-4-methylphenyl)-1H-benzo[d]imidazole-7-carboxylic acid] stands 2410 nM.
